One assay deals with T1, PI3Kα (p110α/p85α) (Homo sapiens, UniProt P42336).
T1 construct: purchased BPS Bioscience or Millipore
Briefly: HTRF assay, potency against active PI3Kα. It is filed as biochemical. The following applies: [ATP]=50 μM, read-out: PI3Kα Inhibition. The protocol:
Compounds of the present invention are assayed as inhibitors of PI3 kinases using the following general protocol.
Homogeneous Time Resolved Fluorescence (HTRF) Assay Protocol for Potency Assessment Against the Active Forms of PI3Kα, PI3Kβ, and PI3Kγ
The protocol below describes an end-point, competition-binding HTRF assay used to measure inherent potency of test compounds against active PI3Kα (p110α/p85α), PI3Kβ (p110β/p85α), and PI3Kγ (p120γ) enzymes. The mechanics of the assay platform are best described by the vendor (Millipore, Billerica, Mass.) on their website at the following URL: www.millipore.com/coa/tech1/74jt4z.
Briefly, Stop solution (Stop A, #33-007 and Stop B, #33-009; 3:1 ratio) and Detection Mix (from DMC, #33-015 with DMA, #33-011 and DMB, #33-013; 18:1:1 ratio) were prepared as recommended by the manufacturer about 2 hrs prior to use. Additionally, 1× reaction buffer (from 4× buffer stock #33-003), 1.4× stocks of PI3Kα, PI3Kβ, and PI3Kγ enzymes from BPS Bioscience (San Diego, Calif.) or Millipore (Billerica, Mass.) with di-C8-PIP2 lipid substrate (#33-005), and a 4×ATP solution (#A7699 Sigma/Aldrich; St. Louis, Mo.) were prepared in 1× reaction buffer. 15 μL of PI3K enzymes and lipid substrate mix were pre-incubated in a Corning (#3573) 384-well, black, non-treated microtiter plate (Corning, N.Y.) for 30 min at 25° C. with a 0.5 μL volume of 50% DMSO and serially diluted compounds prepared in 50% DMSO. Lipid kinase reactions were started with the addition of 5 μL of ATP solution, mixed for 15 sec on a rotary plate shaker and incubated for 30-60 minutes at 25° C. Next, reactions were stopped with a 5 μL addition of Stop solution immediately followed by a 5 μL volume of Detection Mix. Stopped reactions were equilibrated for 1 and 18 hrs at room temperature and read in a Synergy^4 plate reader from BioTek (Winooski, Vt.) at λex 330-80/λem 620-35 and λem 665-7.5. At the conclusion of each assay, the HTRF ratio from fluorescence emission values for each well was calculated and % Inhibition determined from averaged controls wells (+/−PI3K enzyme). % Inhibition values for each compound were then plotted against inhibitor concentration to estimate IC50 from log [Inhibitor]vs Response, Variable Slope model in GraphPad Prism from GraphPad Software (San Diego, Calif.).
[Reagent] used in optimized protocol:
(ATP KMapp for both enzymes was estimated to be 40-70 μM)

Another assay deals with T2, PI3Kα (Homo sapiens, UniProt P42336).
T2 construct: purchased Millipore 14-602
Briefly: Mass spectrometry for PI3K (covalent modification of intact protein, MALDI). It is filed as binding. The protocol: Mass Spectrometry for PI3K
Intact PI3Kα (Millipore, 14-602) was incubated for 1 hr at a 10-fold excess of I-11 to protein. Aliquots (5 μl) of the samples were diluted with 15 μl of 0.2% TFA prior to micro C4 ZipTipping directly onto the MALDI target using Sinapinic acid as the desorption matrix (10 mg/mL in 0.1% TFA:Acetonitrile 50:50). […] Other compounds that modify PI3Kα >50% after 1 hr include I-1, I-2, I-12, I-17, and I-19.

T2 sequence (P42336 whole entry): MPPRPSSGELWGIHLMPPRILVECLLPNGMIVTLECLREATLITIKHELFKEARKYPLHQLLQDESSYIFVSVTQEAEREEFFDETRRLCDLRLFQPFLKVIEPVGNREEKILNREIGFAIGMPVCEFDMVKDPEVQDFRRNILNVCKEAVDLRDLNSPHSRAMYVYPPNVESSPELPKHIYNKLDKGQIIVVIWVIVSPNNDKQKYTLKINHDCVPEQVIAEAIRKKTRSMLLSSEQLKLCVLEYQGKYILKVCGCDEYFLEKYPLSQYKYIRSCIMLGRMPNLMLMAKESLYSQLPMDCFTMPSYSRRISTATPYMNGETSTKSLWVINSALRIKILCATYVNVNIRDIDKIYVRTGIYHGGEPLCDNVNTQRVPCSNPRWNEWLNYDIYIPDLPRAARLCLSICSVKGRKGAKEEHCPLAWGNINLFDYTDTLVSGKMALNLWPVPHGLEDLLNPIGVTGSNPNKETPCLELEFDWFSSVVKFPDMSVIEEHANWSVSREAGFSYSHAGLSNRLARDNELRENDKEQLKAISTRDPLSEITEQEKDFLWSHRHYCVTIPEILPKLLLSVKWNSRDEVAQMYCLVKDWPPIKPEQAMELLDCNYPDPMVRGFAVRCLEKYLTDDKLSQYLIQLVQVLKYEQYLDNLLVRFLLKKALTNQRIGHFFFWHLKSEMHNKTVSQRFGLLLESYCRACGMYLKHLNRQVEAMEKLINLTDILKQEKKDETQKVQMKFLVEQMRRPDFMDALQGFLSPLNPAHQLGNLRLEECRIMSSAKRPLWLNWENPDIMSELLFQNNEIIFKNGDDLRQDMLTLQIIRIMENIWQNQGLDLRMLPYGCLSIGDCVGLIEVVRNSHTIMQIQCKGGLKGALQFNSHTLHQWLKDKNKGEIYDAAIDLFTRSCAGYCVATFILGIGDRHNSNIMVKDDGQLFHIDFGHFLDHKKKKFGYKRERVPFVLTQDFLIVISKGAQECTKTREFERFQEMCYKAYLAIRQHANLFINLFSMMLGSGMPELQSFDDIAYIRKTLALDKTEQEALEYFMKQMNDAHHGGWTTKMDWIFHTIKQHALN
T2 sequence (P27986 whole entry partner): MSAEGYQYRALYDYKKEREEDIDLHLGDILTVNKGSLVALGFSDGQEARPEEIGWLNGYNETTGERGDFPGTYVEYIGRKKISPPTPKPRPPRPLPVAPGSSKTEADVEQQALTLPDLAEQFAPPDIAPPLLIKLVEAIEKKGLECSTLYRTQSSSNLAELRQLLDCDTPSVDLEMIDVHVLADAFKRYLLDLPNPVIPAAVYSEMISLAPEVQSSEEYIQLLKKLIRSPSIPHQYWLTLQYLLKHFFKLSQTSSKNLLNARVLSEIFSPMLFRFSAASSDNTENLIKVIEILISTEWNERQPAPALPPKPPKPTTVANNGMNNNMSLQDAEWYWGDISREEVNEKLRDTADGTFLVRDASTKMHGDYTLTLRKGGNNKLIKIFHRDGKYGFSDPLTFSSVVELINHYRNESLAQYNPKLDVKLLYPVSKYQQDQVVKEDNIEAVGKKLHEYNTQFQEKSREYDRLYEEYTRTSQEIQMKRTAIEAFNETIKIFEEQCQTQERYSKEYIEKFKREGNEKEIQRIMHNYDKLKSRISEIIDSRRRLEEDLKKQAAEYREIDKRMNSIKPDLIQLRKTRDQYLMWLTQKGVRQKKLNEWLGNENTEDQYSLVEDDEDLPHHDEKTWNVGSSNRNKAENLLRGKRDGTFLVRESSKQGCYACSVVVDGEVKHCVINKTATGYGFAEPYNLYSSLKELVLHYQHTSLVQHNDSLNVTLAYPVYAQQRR
T1 sequence (P42336 whole entry): as the sequence (P42336 whole entry) above
T1 sequence (P27986 whole entry partner): as the sequence (P27986 whole entry partner) above

Consider `CC(C)=CC(=O)CCC(=O)N1CCN(c2ccc(-c3cc(-c4cnc(N)nc4)nc(N4CCOCC4)c3)cc2)CC1` [I-1, 1-(4-(4-(2-(2-aminopyrimidin-5-yl)-6-morpholinopyridin-4-yl)phenyl)piperazin-1-yl)-6-methylhept-5-ene-1,4-dione], for which the IC50 on PI3Kα (p110α/p85α) fell in the range of 100 to 1000 nM.

`CC(C)=CC(=O)CCC(=O)Nc1ccc(C#Cc2cc(-c3cnc(N)nc3)nc(N3CCOCC3)c2)cc1` [I-2, N-(4-((2-(2-aminopyrimidin-5-yl)-6-morpholinopyridin-4-yl)ethynyl)phenyl)-6-methyl-4-oxohept-5-enamide]: the IC50 on PI3Kα (p110α/p85α) is 10 to 100 nM. Same read-out and setting: under `C/C=C/C(=O)Nc1ccc(CC(=O)N2CC=C(c3cc(-c4cnc(N)nc4)nc(N4CCOCC4)c3)CC2)cc1` [I-3] stands 100 to 1000 nM; under `Nc1ncc(-c2cc(C3=CCN(C(=O)Cc4ccc(NC(=O)/C=C(\C5CC5)C(F)(F)F)cc4)CC3)cc(N3CCOCC3)n2)cn1` [I-4], 10 to 100 nM. Same read-out and setting: under `Nc1ncc(-c2cc(C3=CCN(C(=O)Cc4ccc(NC(=O)/C=C(\c5ccccc5)C(F)(F)F)cc4)CC3)cc(N3CCOCC3)n2)cn1` [I-5] stands 10 to 100 nM; under `C/C(=C\C(=O)Nc1ccc(CC(=O)N2CC=C(c3cc(-c4cnc(N)nc4)nc(N4CCOCC4)c3)CC2)cc1)C(F)(F)F` [I-6], 100 to 1000 nM. On the same count and under the same terms, with `C/C(=C/C(=O)Nc1ccc(CC(=O)N2CC=C(c3cc(-c4cnc(N)nc4)nc(N4CCOCC4)c3)CC2)cc1)C(F)(F)F` [I-7] the figure was 100 to 1000 nM. `CC(C)/C(=C\C(=O)Nc1ccc(CC(=O)N2CC=C(c3cc(-c4cnc(N)nc4)nc(N4CCOCC4)c3)CC2)cc1)C(F)(F)F` [I-8]: the IC50 on PI3Kα (p110α/p85α) fell in the range of 100 to 1000 nM. The same measure, in the same setting: with `CC(C)/C(=C/C(=O)Nc1ccc(CC(=O)N2CC=C(c3cc(-c4cnc(N)nc4)nc(N4CCOCC4)c3)CC2)cc1)C(F)(F)F` [I-9] the figure was 10 to 100 nM; with `C/C=C/C(=O)Nc1ccc(CC(=O)N2CCN(c3cc(-c4cnc(N)nc4)nc(N4CCOCC4)c3)CC2)cc1` [I-10], 100 to 1000 nM.

Take `Nc1ncc(-c2cc(N3CCN(C(=O)Cc4ccc(NC(=O)/C=C(\C5CC5)C(F)(F)F)cc4)CC3)cc(N3CCOCC3)n2)cn1` [I-11]: the IC50 on PI3Kα (p110α/p85α) lay in the range of 10 to 100 nM. The “covalent modification of PI3Kα by MS analysis (FIG. 1)” value at PI3Kα is “confirming covalent modification”. Further, the “modification of PI3Kα” value at PI3Kα (intact PI3Kα incubated 1 hr, 10-fold excess of compound to protein) stood at 87%. Moreover, at PI3Kα (intact PI3Kα incubated 1 hr, 10-fold excess of compound, MALDI centroid mass), the “mass shift of PI3K after incubation with compound” value is listed as 555 Da.

Turning to `Nc1ncc(-c2cc(N3CCN(C(=O)Cc4ccc(NC(=O)/C=C(\c5ccccc5)C(F)(F)F)cc4)CC3)cc(N3CCOCC3)n2)cn1` [I-12], at PI3Kα (p110α/p85α), the IC50 was in the range of 10 to 100 nM. Turning to `C/C(=C\C(=O)Nc1ccc(CC(=O)N2CCN(c3cc(-c4cnc(N)nc4)nc(N4CCOCC4)c3)CC2)cc1)C(F)(F)F` [I-13], the IC50 at PI3Kα (p110α/p85α) was 100 to 1000 nM. Still for that read-out and setting: under `C/C(=C/C(=O)Nc1ccc(CC(=O)N2CCN(c3cc(-c4cnc(N)nc4)nc(N4CCOCC4)c3)CC2)cc1)C(F)(F)F` [I-14] stands 100 to 1000 nM; under `CC(C)/C(=C\C(=O)Nc1ccc(CC(=O)N2CCN(c3cc(-c4cnc(N)nc4)nc(N4CCOCC4)c3)CC2)cc1)C(F)(F)F` [I-15], 100 to 1000 nM. In the case of `CC(C)/C(=C/C(=O)Nc1ccc(CC(=O)N2CCN(c3cc(-c4cnc(N)nc4)nc(N4CCOCC4)c3)CC2)cc1)C(F)(F)F` [I-16], the IC50 on PI3Kα (p110α/p85α) was in the range of 10 to 100 nM. Still for that read-out and setting: with `C=CC(=O)Nc1ccc2sc(N3CCN(c4cc(-c5cnc(N)nc5)nc(N5CCOCC5)c4)CC3)nc2c1` [I-17] the figure was 10 to 100 nM.
